pIC50: −log10 of the molar value. Structures can show the parent of a compound that is named as a salt.
These compounds were tested on serotonin reuptake (assay: Inhibition of 3H-5-HT uptake into rat brain synaptosomes). Settings: ^3H-5-HT accumulation into whole rat brain synaptosomes.
Assay type: biochemical
Experimental: Inhibition of ^3H-5-HT Uptake Into Rat Brain Synaptosomes
Using this method, the ability of drugs to inhibit the accumulation of ^3H-5-HT into whole rat brain synaptosomes is determined in vitro. The assay was performed as described by Hyttel, J., Psychopharmacology 1978, 60, 13.

SMILES	pIC50
CN(CCCCc1cccc2c1OCCO2)CCCC1(c2ccc(F)cc2)OCc2cc(C#N)ccc21 (single isomer, unassigned; (+)) [Compound 1a, (+)-1-[3-[[4-(1,4-Benzodioxan-5-yl)butyl]methylamino]propyl]-1-(4-fluorophenyl)-1,3-dihydroisobenzofuran-5-carbonitrile]	7.22
CN(CCCc1cccc2c1OCCO2)CCCC1(c2ccc(F)cc2)OCc2cc(C#N)ccc21 (single isomer, unassigned; (+)) [Compound 1b, (+)-1-[3-[[3-(1,4-Benzodioxan-5-yl)propyl]methylamino]propyl]-1-(4-fluorophenyl)-1,3-dihydroisobenzofuran-5-carbonitrile oxalate]	7.89
CN(CCCC1(c2ccc(F)cc2)OCc2cc(C#N)ccc21)CCc1cccc2c1OCCO2 (stereo not shown) [Compound 1c, 1-[3-[[2-(1,4-Benzodioxan-5-yl)ethyl]methylamino]propyl]-1-(4-fluorophenyl)-1,3-dihydroisobenzofuran-5-carbonitrile oxalate]	7.07
COc1ccccc1N1CCN(CCCC2(c3ccc(F)cc3)OCc3cc(C#N)ccc32)CC1 (stereo not shown) [Compound 2a, 1-(4-Fluorophenyl)-1-[3-[4-(2-methoxyphenyl)piperazinyl]propyl]-1,3-dihydroisobenzofuran-5-carbonitrile]	6.47
N#Cc1ccc2c(c1)COC2(CCCN1CCC(c2c[nH]c3cc(Cl)ccc23)CC1)c1ccc(F)cc1 (stereo not shown) [Compound 2o, 1-[3-[4-(6-chloro-1H-Indol-3-yl)piperidinyl]propyl]-1-(4-fluorophenyl)-1,3-dihydroisobenzofuran-5-carbonitrile]	7.51
CN(CCCC1(c2ccc(F)cc2)OCc2cc(C#N)ccc21)CCc1c[nH]c2c(F)cccc12 (stereo not shown) [Compound 12b, 1-[3-[[2-(7-Fluoro-1H-indol-3-yl)ethyl]methylamino]propyl]-1-(4-fluorophenyl)-1,3-dihydroisobenzofuran-5-carbonitrile]	8.00

These compounds were tested on Human 5-HT1A Receptors (assay: Inhibition of 3H-5-CT binding to human 5-HT1A receptors). Settings: at 100 nM; cloned human 5-HT1A receptors expressed in HeLa cells (HA7).
Experimental: The affinity of the compounds of the invention to 5-HT1A receptors was determined by measuring the inhibition of binding of a radioactive ligand at 5-HT1A receptors as described in the following test:
Inhibition of ^3H-5-CT Binding to Human 5-HT1A Receptors
By this method the inhibition by drugs of the binding of the 5-HT1A agonist ^3H-5-carboxamido tryptamine (^3H-5-CT) to cloned human 5-HT1A receptors stably expressed in transfected HeLa cells (HA7) (Fargin, A. et al, J. Biol. Chem., 1989, 264, 14848) is determined in vitro. The assay was performed as a modification of the method described by Harrington, M.A. et al, J. Pharmacol. Exp. Ther., 1994, 268, 1098. Human 5-HT1A receptors (40 µg of cell homogenate) were incubated for 15 minutes at 37 °C in 50 mM Tris buffer at pH 7.7 in the presence of ^3H-5-CT. Non-specific binding was determined by including 10 µM of metergoline. The reaction was terminated by rapid filtration through Unifilter GF/B filters on a Tomtec Cell Harvester. Filters were counted in a Packard Top Counter.

SMILES	Inhibition of ^3H- 5-CT binding % inhibition at 100 nM
C=CCN(CCCc1cccc(OC)c1)CCCC1(c2ccc(F)cc2)OCc2cc(C#N)ccc21 (stereo not shown) [Compound 4l, 1-(4-Fluorophenyl)-1-[3-[[3-(3-methoxyphenyl)propyl](prop-2-en-1-yl)amino]propyl]-1,3-dihydroisobenzofuran-5-carbonitrile]	76% inh. at 100 nM
COc1ccccc1OCCCN(C)CCCC1(c2ccc(F)cc2)OCc2cc(C#N)ccc21 (stereo not shown) [Compound 4m, 1-(4-Fluorophenyl)-1-[3-[[3-(2-methoxyphenoxy)propyl]methylamino]propyl]-1,3-dihydroisobenzofuran-5-carbonitrile]	65% inh. at 100 nM
C#CCN(CCCc1c[nH]c2ccccc12)CCCC1(c2ccc(F)cc2)OCc2cc(C#N)ccc21 (stereo not shown) [Compound 4u, 1-[3-[[3-(1H-Indol-3-yl)propyl](prop-2-yn-1-yl)amino]propyl]-1-(4-fluorophenyl)-1,3-dihydroisobenzofuran-5-carbonitrile]	58% inh. at 100 nM

Same assay, conditions: cloned human 5-HT1A receptors expressed in HeLa cells (HA7), 15 minutes at 37 °C, pH 7.7

SMILES	pIC50
CN(CCCCc1cccc2c1OCCO2)CCCC1(c2ccc(F)cc2)OCc2cc(C#N)ccc21 (single isomer, unassigned; (+)) [Compound 1a, (+)-1-[3-[[4-(1,4-Benzodioxan-5-yl)butyl]methylamino]propyl]-1-(4-fluorophenyl)-1,3-dihydroisobenzofuran-5-carbonitrile]	7.41

From patent EP1137644B9, “BENZOFURAN DERIVATIVES, THEIR PREPARATION AND USE” (H. Lundbeck A/S, priority 1998, dated 2000)
